Measured values as given in PubChem BioAssay AID1963838 (Molecular Pharmacology Branch, DTP, NCI, 2024).

Test system: 855422-203-R-J1-PDC complex spheroid viability
Assay: Anticancer human tumor 855422-203-R-J1-PDC patient-derived bladder carcinoma cell line growth inhibition [POLQ]
Conditions: for IC50: curve of first compound; for viability, T/C: stronger effect = lower value
Procedure, shortened: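 Three-cell-type spheroids modelling solid tumor plus stroma served as the readout system; POL inhibitors were tested individually and in combination, concentration ranges set by clinical Cmax where known.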

[1] = second compound 0.0316 µM, first compound 0.0316 µM
[2] = second compound 0.0316 µM, first compound 0.1 µM
[3] = second compound 0.1 µM, first compound 0.0316 µM
[4] = second compound 0.1 µM, first compound 0.1 µM
[5] = second compound 0.316 µM, first compound 0.0316 µM
[6] = second compound 0.316 µM, first compound 0.1 µM
[7] = second compound 1 µM, first compound 0.0316 µM
[8] = second compound 1 µM, first compound 0.1 µM
[9] = second compound 3.16 µM, first compound 0.0316 µM
[10] = second compound 3.16 µM, first compound 0.1 µM
[11] = second compound 10 µM, first compound 0.0316 µM
[12] = second compound 10 µM, first compound 0.1 µM
[13] = second compound 0.0316 µM, first compound 0.316 µM
[14] = second compound 0.0316 µM, first compound 1 µM
[15] = second compound 0.0316 µM, first compound 3.16 µM
[16] = second compound 0.0316 µM, first compound 10 µM
[17] = second compound 0.1 µM, first compound 0.316 µM
[18] = second compound 0.1 µM, first compound 1 µM
[19] = second compound 0.1 µM, first compound 3.16 µM
[20] = second compound 0.1 µM, first compound 10 µM
[21] = second compound 0.316 µM, first compound 0.316 µM
[22] = second compound 0.316 µM, first compound 1 µM
[23] = second compound 0.316 µM, first compound 3.16 µM
[24] = second compound 0.316 µM, first compound 10 µM
[25] = second compound 1 µM, first compound 0.316 µM
[26] = second compound 1 µM, first compound 1 µM
[27] = second compound 1 µM, first compound 3.16 µM
[28] = second compound 1 µM, first compound 10 µM
[29] = second compound 3.16 µM, first compound 0.316 µM
[30] = second compound 3.16 µM, first compound 1 µM
[31] = second compound 3.16 µM, first compound 3.16 µM
[32] = second compound 3.16 µM, first compound 10 µM
[33] = second compound 10 µM, first compound 0.316 µM
[34] = second compound 10 µM, first compound 1 µM
[35] = second compound 10 µM, first compound 3.16 µM
[36] = second compound 10 µM, first compound 10 µM
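Further: spheroids exposed to compounds for seven days before readout.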

CC[C@@]1(O)C(=O)OCc2c1cc1n(c2=O)Cc2cc3c(CN(C)C)c(O)ccc3nc2-1 + Nc1ccc(C#CCN(C(=O)Cc2ncc(C(F)(F)F)cc2C(F)(F)F)c2ccc(F)cc2)nn1
IC50 (second compound 0.0316 µM): 0.0572 µM | IC50 (second compound 0.1 µM): 0.0667 µM | IC50 (second compound 0.316 µM): 0.062 µM | IC50 (second compound 1 µM): 0.0597 µM | IC50 (second compound 3.16 µM): 0.0664 µM | IC50 (second compound 10 µM): 0.064 µM | viability, T/C (second compound 0.0316 µM, first compound 0.000316 µM): 89.5% | viability, T/C (second compound 0.0316 µM, first compound 0.001 µM): 111% | viability, T/C (second compound 0.0316 µM, first compound 0.00316 µM): 101% | viability, T/C (second compound 0.0316 µM, first compound 0.01 µM): 89.6% | viability, T/C [1]: 86.9% | viability, T/C [2]: 16.9% | viability, T/C (second compound 0.1 µM, first compound 0.000316 µM): 83.8% | viability, T/C (second compound 0.1 µM, first compound 0.001 µM): 129% | viability, T/C (second compound 0.1 µM, first compound 0.00316 µM): 102% | viability, T/C (second compound 0.1 µM, first compound 0.01 µM): 98.4% | viability, T/C [3]: 99.3% | viability, T/C [4]: 23.3% | viability, T/C (second compound 0.316 µM, first compound 0.000316 µM): 91.8% | viability, T/C (second compound 0.316 µM, first compound 0.001 µM): 99% | viability, T/C (second compound 0.316 µM, first compound 0.00316 µM): 91.8% | viability, T/C (second compound 0.316 µM, first compound 0.01 µM): 101% | viability, T/C [5]: 97.1% | viability, T/C [6]: 17.1% | viability, T/C (second compound 1 µM, first compound 0.000316 µM): 94.6% | viability, T/C (second compound 1 µM, first compound 0.001 µM): 88.5% | viability, T/C (second compound 1 µM, first compound 0.00316 µM): 109% | viability, T/C (second compound 1 µM, first compound 0.01 µM): 114% | viability, T/C [7]: 83% | viability, T/C [8]: 23.1% | viability, T/C (second compound 3.16 µM, first compound 0.000316 µM): 92.8% | viability, T/C (second compound 3.16 µM, first compound 0.001 µM): 106% | viability, T/C (second compound 3.16 µM, first compound 0.00316 µM): 99.4% | viability, T/C (second compound 3.16 µM, first compound 0.01 µM): 117% | viability, T/C [9]: 102% | viability, T/C [10]: 21.3% | viability, T/C (second compound 10 µM, first compound 0.000316 µM): 98.7% | viability, T/C (second compound 10 µM, first compound 0.001 µM): 93.7% | viability, T/C (second compound 10 µM, first compound 0.00316 µM): 97% | viability, T/C (second compound 10 µM, first compound 0.01 µM): 100% | viability, T/C [11]: 95.3% | viability, T/C [12]: 21.2%

COc1cc(C2c3cc4c(cc3C(OC3OC5COC(C)OC5C(O)C3O)C3COC(=O)C23)OCO4)cc(OC)c1O (stereo unspecified) + Nc1ccc(C#CCN(C(=O)Cc2ncc(C(F)(F)F)cc2C(F)(F)F)c2ccc(F)cc2)nn1
IC50 (second compound 0.0316 µM): 0.525 µM | IC50 (second compound 0.1 µM): 0.477 µM | IC50 (second compound 0.316 µM): 0.446 µM | IC50 (second compound 1 µM): 0.439 µM | IC50 (second compound 3.16 µM): 0.335 µM | IC50 (second compound 10 µM): 0.38 µM | viability, T/C [1]: 120% | viability, T/C [2]: 127% | viability, T/C [13]: 78.5% | viability, T/C [14]: 15% | viability, T/C [15]: 10% | viability, T/C [16]: 7.23% | viability, T/C [3]: 108% | viability, T/C [4]: 164% | viability, T/C [17]: 71.5% | viability, T/C [18]: 21% | viability, T/C [19]: 8.67% | viability, T/C [20]: 4.47% | viability, T/C [5]: 94.4% | viability, T/C [6]: 137% | viability, T/C [21]: 66.1% | viability, T/C [22]: 21.8% | viability, T/C [23]: 10.4% | viability, T/C [24]: 4.7% | viability, T/C [7]: 92.2% | viability, T/C [8]: 141% | viability, T/C [25]: 64.8% | viability, T/C [26]: 23.5% | viability, T/C [27]: 10.1% | viability, T/C [28]: 4.86% | viability, T/C [9]: 99.3% | viability, T/C [10]: 135% | viability, T/C [29]: 52% | viability, T/C [30]: 20.5% | viability, T/C [31]: 10.7% | viability, T/C [32]: 4.56% | viability, T/C [11]: 105% | viability, T/C [12]: 114% | viability, T/C [33]: 56.5% | viability, T/C [34]: 19.5% | viability, T/C [35]: 11.1% | viability, T/C [36]: 5.88%

COc1cccc2c1C(=O)c1c(O)c3c(c(O)c1C2=O)CC(O)(C(=O)CO)CC3OC1CC(N)C(O)C(C)O1 (stereo unspecified) + Nc1ccc(C#CCN(C(=O)Cc2ncc(C(F)(F)F)cc2C(F)(F)F)c2ccc(F)cc2)nn1
IC50 (second compound 0.0316 µM): < 0.0316 µM | IC50 (second compound 0.1 µM): < 0.0316 µM | IC50 (second compound 0.316 µM): < 0.0316 µM | IC50 (second compound 1 µM): < 0.0316 µM | IC50 (second compound 3.16 µM): < 0.0316 µM | IC50 (second compound 10 µM): < 0.0316 µM | viability, T/C [1]: 26.2% | viability, T/C [2]: 12.8% | viability, T/C [13]: 3.75% | viability, T/C [14]: 0.9% | viability, T/C [15]: 1.51% | viability, T/C [16]: 4.81% | viability, T/C [3]: 25.7% | viability, T/C [4]: 12.2% | viability, T/C [17]: 3.22% | viability, T/C [18]: 0.93% | viability, T/C [19]: 1.37% | viability, T/C [20]: 3.69% | viability, T/C [5]: 26% | viability, T/C [6]: 12.8% | viability, T/C [21]: 2.51% | viability, T/C [22]: 0.82% | viability, T/C [23]: 1.39% | viability, T/C [24]: 5.31% | viability, T/C [7]: 24.3% | viability, T/C [8]: 11.5% | viability, T/C [25]: 4.7% | viability, T/C [26]: 0.92% | viability, T/C [27]: 1.13% | viability, T/C [28]: 6.67% | viability, T/C [9]: 26.3% | viability, T/C [10]: 12.7% | viability, T/C [29]: 4.52% | viability, T/C [30]: 1.14% | viability, T/C [31]: 1.38% | viability, T/C [32]: 4.89% | viability, T/C [11]: 21.4% | viability, T/C [12]: 12.1% | viability, T/C [33]: 2.85% | viability, T/C [34]: 2.62% | viability, T/C [35]: 1.74% | viability, T/C [36]: 5.86%
